Experimental findings from patent US10947260B2, “Phosphinolactone derivatives and pharmaceutical uses thereof” (INSTITUT NATIONAL DE LA SANTE ET DE LA RECHERCHE MEDICALE …, priority 2016, dated 2021) are described below.

Molecules are shown by their SMILES.

Data set [1] concerns mice treated with Aβ25-35. As to the kind of experiment: Spontaneous alternation in the Y-maze, Aβ25-35 amyloid toxicity model. Format: in vivo. The note with it: for active dose (neuroprotective effects): non-transgenic AD model, ICV Aβ25-35 in mice. The protocol: Male mice (RjOrl:SWISS) from Janvier laboratories (Le Genest-Saint-Isle, France), aged 7-9 weeks and weighing 32±2 g were used for this study. The animals were grouped in plastic cages with free access to the […] and water, in a regulated environment (23±1° C., humidity 40-60%, 12 h light/dark cycle).
The compounds were solubilized in physiological saline solution (0.9% NaCl) or in dimethylsulfoxide (DMSO) 10% in the saline solution and administered via intraperitoneal route (IP) in a volume of 100 μl per 20 g body weight.
The amyloid-β[25-35] peptide (Aβ25-35) and control peptide (Sc.Aβ) were obtained from Genepep (Saint-Jean-de-Vedas, France). They were solubilized in injectable distilled water at a concentration of 3 mg/ml and stored at −20° C. Before injection, the peptides were incubated at 37° C. for 4 days, which enabled the Aβ25-35 peptide but not the Sc.Aβ, to form oligomers. They were administered via intracerebroventricular route (ICV). The animals were anesthetized by inhaling 2.5% isoflurane (TEM) and were given 3 μl of peptide solution via direct ICV route (Haley and McCormick's method). For injection a 10 μl Hamilton micro-syringe was used at a flow rate of 1 μl/min.
(§1) The animals were tested for spontaneous alternation performance in a Y-maze, an index of spatial working memory. The Y-maze was in grey PVC. Each arm was 40 cm long, 13 cm high, 3 cm wide at the base and 10 cm wide in the upper part, and converging at an equal angle. Each mouse was placed at one end of an arm and was able to move freely through the maze during an 8-min session. The series of arm entries, including any returns in the same arm were visually analysed. Alternation is defined as being consecutive entries in three different arms. The maximum number of alternations is therefore the total number of arm entries less two, and alternation percentage is calculated as (actual alternations/maximum possible alternations)×100. The parameters comprise the alternation percentage (memory index) and the total number of arm entries (exploratory index).
[…] After one week, the animals were tested for behavioural performance, then sacrificed and the brain dissected for biochemical analyses.
On Day 7, after the injections of 3b and amyloid peptide, the mice were tested for their ability to alternate in the Y-maze, a spatial working memory test. […] The mice were then tested for passive avoidance response, a long-term non-spatial memory test. with training on Day 8 and recall on Day 9 after the injections (FIG. 1c).

The subject of the next data set is APPSwe mice. The data set can be described thus: Spontaneous alternation in Y-maze, transgenic APPSwe mice, chronic treatment. Format: in vivo. The conditions noted are these: for alternation deficit of APPSwe animals: 1 mg/kg/d. The method, then:
FIG. 8: Spontaneous alternation (a, b) and total number of arm entries (c, d) of APPSwe mice given compound 3b, in the Y-maze, after treatment of one month (a, c) and 2 months (b, d). The animals were given compound 3b (0.7 or 2 mg/kg IP) 3 times per week for 1 or 2 months. N=6-15 per group. ANOVA: F(5.49)=3.84, p<0.01 at (a); F(5.54)=1.54, p>0.05 at (b); F<1 at (c) et (d). *p<0.05, **p<0.01 compared with group (WT+V); #p<0.05 compared with group (APPSwe+V); Dunnett test at (a, b).
FIG. 10: Spontaneous alternation (a, b) and number of arm entries (c, d) for APPSwe mice treated with compound 3c, in the Y-maze, after treatment for 1 month (a, c) or 2 months (b, d). The animals were given compound 3c (1 mg/kg IP) 3 times per week for 1 or 2 months. N=10-13 per group. ANOVA: F(3.45)=3.61, p<0.05 at (a); F(3.38)=6.33, p<0.01 at (b); F<1 at (c) and (d). *p<0.05, ***p<0.001 compared with group WT/V; #p<0.05 compared with group APPSwe/V; Dunnett test at (a, b).
as §1
TG2576 mice, over-expressing the human amyloid precursor protein carrying the Swedish double mutation APPSwe, develop the pathology towards the age of 8-10 months and up until 15-17 months, age at which 95% of the animals show behavioural, biochemical and morphological signs of the disease. Compound 3b was administered under chronic treatment at doses of 0.7 mg/kg/d IP and then 2 mg/kg/d IP. The effect of compound 3c, at a dose of 1 mg/kg/j IP, was also documented.

As for `CC1(C)COP(=O)(c2ccc(Cl)cc2)C(C)(C)N1` (racemic) [Compound 3c, (±)-2-(4-Chlorophenyl)-2-oxo-3,3,5,5-tetramethyl-[1,4,2]-oxazaphosphinane], the “spontaneous alternation deficit induced by Aβ25-35 (Y-maze)” value in data set [1] (0.3 mg/kg IP (range tested 0.03-0.7; only this dose efficient), Day 7) was “significantly prevents spontaneous alternation deficit”. Moreover, in data set [1] (IP), the “active dose (neuroprotective effects)” value is on record as 0.3 mg/kg. Also, the “alternation deficit of APPSwe animals” value in the data set on APPSwe mice (1 month) is listed as “attenuated”; with APPSwe mice (2 months) it was “significantly blocked”.
Consider `CC1(C)COP(=O)(c2cccc(Cl)c2)C(C)(C)N1` (racemic) [Compound 3b, (±)-2-(3-Chlorophenyl)-2-oxo-3,3,5,5-tetramethyl-[1,4,2]-oxazaphosphinane], for which the “active dose (neuroprotective effects)” value in data set [1] (IP) stood at 0.7 mg/kg. The same compound displayed a minimum active dose in data set [1] (dose-dependent experiments, Aβ25-35 model, IP) of 0.7 mg/kg. The “alternation in the WT animals” value with APPSwe mice (lowest dose (0.7 mg/kg/d), 2 months) is “appears to impact alternation”. For the same compound, the “spontaneous alternation performance of wild-type control animals” value in the data set on APPSwe mice (treatment for one month, 0.7 or 2 mg/kg IP) is given as “does not affect the performance”.
